Assay results taken from PMC6131539, “Behavioral Effects of a Potential Novel TAAR1 Antagonist” (Frontiers in Pharmacology, 2018).

Tests used:
[1] = test system: WT littermates (C57BL/6J × 129S2/Sv); assay: Basal locomotor activity in WT littermates of TAAR1-KO mice; assay type: in vivo; details: 5 and 25 mg/kg alone, 60 min
Protocol: The Taarl^-/- (TAAR1-KO) mice were obtained from Lundbeck ([Wolinsky et al., 2007]). All wild type (WT) and TAAR1-KO mice used for experiments were generated from TAAR1-KO heterozygous mice in a C57BL/6J x 129S1/Sv mixed background. Experimentally naïve mice, of at least 12 weeks of age, were used for all behavioral experiments. The mice were randomly assigned to treatment or control groups, balanced by sex and weight. Locomotor activity was assessed using the automated locomotor analysis monitors (Omnitech Electronics, Columbus, OH, United States). The apparatus included four open field monitors. Each Open Field monitor consisted of sets of 16 light beams arrayed in the horizontal X and Y axes. The hardware detected beams broken by the animal, which allowed the software to determine the location of the mouse in the cage. Total distance covered by mice was used to characterize locomotor activity of the animals. The monitors were divided into four compartments (20 cm × 20 cm). Animals were tested individually for defined periods with 5-min intervals. The mice were first weighed and then placed into the apparatus, allowing for 30 min habituation. […] The locomotor activity was then measured for additional 1 h. […] The locomotor activity was assessed for 60 min following the injection. […]

[2] = test system: WT littermates (C57BL/6J x 129S2/Sv); assay: Stereotypic counts, co-injection with cocaine, WT littermates; assay type: in vivo, mice; details: 15 and 25 mg/kg co-injected with cocaine 10 mg/kg
Protocol: Experimentally naïve mice, of at least 12 weeks of age, were used for all behavioral experiments. The mice were randomly assigned to treatment or control groups, balanced by sex and weight. Locomotor activity was assessed using the automated locomotor analysis monitors (Omnitech Electronics, Columbus, OH, United States). The apparatus included four open field monitors. Each Open Field monitor consisted of sets of 16 light beams arrayed in the horizontal X and Y axes. The hardware detected beams broken by the animal, which allowed the software to determine the location of the mouse in the cage. Total distance covered by mice was used to characterize locomotor activity of the animals. The monitors were divided into four compartments (20 cm × 20 cm). Animals were tested individually for defined periods with 5-min intervals. The mice were first weighed and then placed into the apparatus, allowing for 30 min habituation. […] The locomotor activity was then measured for additional 1 h. […]
Supplementary file Image_2.TIF: FIGURE S2 In vivo studies with TAAR1-KO mice and compound 22 on stereotypic counts activity. […] The sum of stereotypic counts was assessed over 60 min after the injection of amphetamine and compound 22 in WT (solid bars) or TAAR1-KO mice (spotted bars). […] The sum of stereotypic counts was assessed over 60 min following the injection in WT (solid bars) or TAAR1-KO mice (dotted bars). […]

Dopamine Transporter = Dopamine Transporter (Homo sapiens, UniProt Q01959); assay: Fluorescent dopamine uptake assay in HEK293 cells stably expressing human HA-DAT; assay type: cell-based; design: expressed in transfected cells
Protocol: Fluorescent dopamine uptake assay kits were purchased from Molecular Devices (Sunnyvale, CA; catalog #: R6138). Stable cells expressing human HA-DAT were seeded on poly-D-lysine treated, black clear-bottom 96-well plates (Corning Catalog #: 3603) at a density of 1 × 10^5 cells/well, and incubated for 24 h prior to the start of the uptake experiment. […] The plates were then incubated for 30 min at 37°C. Following incubation, 100 μL of dye solution was added and fluorescence intensity was measured for 30 min at 37°C using the SpectraMax M3 (Molecular Devices, excitation: 440 nm, emission: 520 nm). The rate of reaction (slope of the curve in the linear range) was taken as the readout for the assay.
Data analyses were performed with Graphpad Prism 5.01 (GraphPad Software, Inc., La Jolla, CA). Linear regression analysis was used to quantify fluorescent dopamine transporter uptake activity. Dose response curves were fitted with non-linear curve fitting. Two-tailed Student’s t-tests or one-way ANOVA analysis with Dunnett’s post hoc correction was used where appropriate to determine differences between data sets.
The ability of compound 22 to directly disrupt uptake activity was assessed with a fluorescent uptake assay.
Error bars represent standard error of mean at N = 3.

Dopamine Transporter, sequence (Q01959 with tags, fused parts or gaps H193Y/G195Y/DEL197-198/G199V/D200P/S201D/S202Y/G203A): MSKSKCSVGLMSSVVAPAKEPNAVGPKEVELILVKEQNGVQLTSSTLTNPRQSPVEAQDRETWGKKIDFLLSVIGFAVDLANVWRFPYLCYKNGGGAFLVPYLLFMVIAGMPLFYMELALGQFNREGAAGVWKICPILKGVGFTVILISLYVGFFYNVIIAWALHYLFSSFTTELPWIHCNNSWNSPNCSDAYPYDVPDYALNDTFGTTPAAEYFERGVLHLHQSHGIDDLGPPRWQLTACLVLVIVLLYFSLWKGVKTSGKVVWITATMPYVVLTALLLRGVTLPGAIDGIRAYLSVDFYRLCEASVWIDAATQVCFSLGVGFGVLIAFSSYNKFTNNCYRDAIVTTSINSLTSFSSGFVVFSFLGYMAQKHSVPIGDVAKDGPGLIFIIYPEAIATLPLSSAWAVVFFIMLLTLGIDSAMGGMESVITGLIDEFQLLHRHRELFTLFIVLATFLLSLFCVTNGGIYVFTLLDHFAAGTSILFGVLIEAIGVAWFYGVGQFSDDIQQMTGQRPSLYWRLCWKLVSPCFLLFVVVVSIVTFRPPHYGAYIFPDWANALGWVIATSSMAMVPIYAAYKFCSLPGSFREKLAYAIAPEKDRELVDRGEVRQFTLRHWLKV

Clc1ccc(CNCc2ccc(Cn3cncn3)cc2)c(Cl)c1 [compound 22]
effect on basal locomotor activity [1]: did not significantly alter
stereotypic counts [2]: enhanced stereotypic counts
effect on dopamine uptake activity (Dopamine Transporter; HEK293 cells stably expressing human HA-DAT, increasing doses): no effect on dopamine uptake activity
effect on cocaine dose response inhibition of dopamine uptake (Dopamine Transporter; co-treatment with 1, 10 and 100 μM compound 22): did not alter
